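A five-concentration, 48-hour dose response in 96-well plates underlies each endpoint, interpolated linearly between surrounding concentrations. GI50 marks 50% less growth.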 Calls of active or inactive are those of the source. Rule as the data show it: active = GI50 up to about 1.1 µM and inactive = higher.
How the values were obtained:
Assay in all cases: inhibition of tumour cell growth, NCI panel, 48 h
MOLT-4 = test system: MOLT-4
CCRF-CEM = test system: CCRF-CEM
NCI-H460 = test system: NCI-H460
SF-268 = test system: SF-268
NCI-H23 = test system: NCI-H23
K562 = test system: K562
MDA-MB-231 = test system: MDA-MB-231
SNB-19 = test system: SNB-19
SK-MEL-28 = test system: SK-MEL-28
CAKI-1 = test system: CAKI-1
EKVX = test system: EKVX
SR = test system: SR
NCI-H522 = test system: NCI-H522
T47D = test system: T47D
UO-31 = test system: UO-31
COLO 205 = test system: COLO 205
HCC 2998 = test system: HCC 2998
ACHN = test system: ACHN
MDA-MB-435 = test system: MDA-MB-435
M14 = test system: M14
LOX IMVI = test system: LOX IMVI
UACC-257 = test system: UACC-257
A498 = test system: A498
SF-295 = test system: SF-295
OVCAR-8 = test system: OVCAR-8
OVCAR-4 = test system: OVCAR-4
U-251 = test system: U-251
RXF 393 = test system: RXF 393
MDA-N = test system: MDA-N
NCI-H226 = test system: NCI-H226
SK-OV-3 = test system: SK-OV-3
KM12 = test system: KM12
SK-MEL-5 = test system: SK-MEL-5
SK-MEL-2 = test system: SK-MEL-2
NCI/ADR-RES = test system: NCI/ADR-RES
SNB-75 = test system: SNB-75
DU-145 = test system: DU-145
MCF7 = test system: MCF7
SW-620 = test system: SW-620
HCT-15 = test system: HCT-15
HOP-62 = test system: HOP-62
OVCAR-5 = test system: OVCAR-5
PC-3 = test system: PC-3
RPMI-8226 = test system: RPMI-8226
TK-10 = test system: TK-10
Hs-578T = test system: Hs-578T
IGROV-1 = test system: IGROV-1
UACC-62 = test system: UACC-62
A549 = test system: A549
HT-29 = test system: HT-29
HL-60 = test system: HL-60
Malme-3M = test system: Malme-3M
HOP-92 = test system: HOP-92
OVCAR-3 = test system: OVCAR-3

## CC(C(=O)NCCNC(=O)CCC(=O)N(C)O)C(=O)NCCNC(=O)CCC(=O)N(C)O
MOLT-4
  GI50: > 100 µM (inactive)
CCRF-CEM
  GI50: > 100 µM (inactive)
NCI-H460
  GI50: > 100 µM (inactive)
SF-268
  GI50: > 100 µM (inactive)
NCI-H23
  GI50: > 100 µM (inactive)
K562
  GI50: > 100 µM (inactive)
MDA-MB-231
  GI50: > 100 µM (inactive)
SNB-19
  GI50: > 100 µM (inactive)
SK-MEL-28
  GI50: 5.71 µM (inactive)
CAKI-1
  GI50: > 100 µM (inactive)
EKVX
  GI50: > 100 µM (inactive)
SR
  GI50: > 100 µM (inactive)
NCI-H522
  GI50: > 100 µM (inactive)
T47D
  GI50: > 100 µM (inactive)
UO-31
  GI50: > 100 µM (inactive)
COLO 205
  GI50: > 100 µM (inactive)
HCC 2998
  GI50: > 100 µM (inactive)
ACHN
  GI50: > 100 µM (inactive)
MDA-MB-435
  GI50: > 100 µM (inactive)
M14
  GI50: > 100 µM (inactive)
LOX IMVI
  GI50: > 100 µM (inactive)
UACC-257
  GI50: > 100 µM (inactive)
A498
  GI50: > 100 µM (inactive)
SF-295
  GI50: > 100 µM (inactive)
OVCAR-8
  GI50: > 100 µM (inactive)
OVCAR-4
  GI50: > 100 µM (inactive)
U-251
  GI50: > 100 µM (inactive)
RXF 393
  GI50: > 100 µM (inactive)
MDA-N
  GI50: > 100 µM (inactive)
NCI-H226
  GI50: > 100 µM (inactive)
SK-OV-3
  GI50: > 100 µM (inactive)
KM12
  GI50: > 100 µM (inactive)
SK-MEL-5
  GI50: 97.9 µM (inactive)
SK-MEL-2
  GI50: > 100 µM (inactive)
NCI/ADR-RES
  GI50: > 100 µM (inactive)
SNB-75
  GI50: > 100 µM (inactive)
DU-145
  GI50: > 100 µM (inactive)
MCF7
  GI50: > 100 µM (inactive)
SW-620
  GI50: > 100 µM (inactive)
HCT-15
  GI50: > 100 µM
HOP-62
  GI50: > 100 µM (inactive)
OVCAR-5
  GI50: > 100 µM (inactive)
PC-3
  GI50: > 100 µM (inactive)
RPMI-8226
  GI50: > 100 µM (inactive)
TK-10
  GI50: > 100 µM (inactive)
Hs-578T
  GI50: > 100 µM (inactive)
IGROV-1
  GI50: > 100 µM (inactive)
UACC-62
  GI50: > 100 µM (inactive)
A549
  GI50: > 100 µM (inactive)
HT-29
  GI50: > 100 µM (inactive)
HL-60
  GI50: > 100 µM (inactive)
Malme-3M
  GI50: > 100 µM (inactive)
HOP-92
  GI50: > 100 µM (inactive)
OVCAR-3
  GI50: > 100 µM (inactive)
